In brackets after ≈: the same amount, converted by molar mass.
Key:
[1] = test system: E. coli (ATCC 25922); experiment: Minimal Inhibitory Concentration (MIC) assay; assay type: cell-based; details: Escherichia coli, ATCC25922; CAMHB, 20 hours at 35° C.; read-out: MIC (μg/mL) E. coli ATCC 25922
Experimental: The in vitro potency of compounds to inhibit E. coli (ATCC 25922) growth was assessed by MIC (Minimal Inhibitory Concentration) assay. Samples were prepared from 10 mM DMSO stock solutions. After serial 2-fold dilution in DMSO in a master plate (Greiner, Cat No: 651201), 180 μL sterile distilled water was added to 20 μL each aliquot of the samples. Then […], diluted compounds were transferred into a new assay plate (Costar, 3599).
The growth medium […] Mueller Hinton Broth (CAMHB) was prepared by adding the 20 mg per liter CaCl2) and 20 mg per liter MgCl2 into the MHB medium (Jianglai Company, sterilized).
Vials of each of the test microorganisms were maintained frozen in the vapor phase of a liquid nitrogen freezer. Took out the bacteria E. coli ATCC 25922 (KWIKSTIK, 0335K) from liquid nitrogen freezer, thawed it in room temperature, and diluted the bacterial in the CAMHB medium to achieve a final inoculum of 5×10^5 CFU/mL. 90 μL CAMHB with bacteria was dispensed to the assay plate and pipetted 5 times.
Then the assay plates were incubated for 20 hours at 35° C. in ambient air. Following incubation, the MIC (μg/mL), the lowest concentration of drug that inhibits visible growth of the microorganism was read and recorded throw the microscope.

[2] = Lyophilisation solubility assay (LYSA); assay type: physicochemical; details: aqueous buffer, thermodynamic from solid; 0.05 M phosphate buffer, pH 6.5; * = detection limit
Experimental: The solubility of compounds of present invention was assessed by LYSA assay. Samples were prepared in duplicate from 10 mM DMSO stock solutions (20 μL) diluted in 30 μL pure DMSO. After evaporation of DMSO with a centrifugal vacuum evaporator, the residue was dissolved in 0.05 M phosphate buffer (150 μL, pH 6.5), stirred for one hour and shook for two hours. After one night, the solution was filtered using a microtiter filter plate. Then the filtrate and its 1/10 dilution were analyzed by HPLC-UV. In addition, a four-point calibration curve was prepared from the 10 mM stock solutions and used for the solubility determination of the compounds.

[3] = test system: K. pneumoniae (ATCC10031); experiment: 50% growth inhibitory concentration (IC50) determination assay, K. pneumoniae; assay type: cell-based; details: Klebsiella pneumoniae, growth inhibition, Iso-Sensitest broth, OD 600 nm over 16 h, * = detection limit
Experimental: (§1) The in vitro antimicrobial activity of the compounds against E. coli (BW25113, obtained from Coli Genetic Stock Center, #7636) and K. pneumoniae (ATCC10031) was determined according to the following procedure:
(§2) The assay used a 10-points Iso-Sensitest broth medium to measure quantitatively the in vitro activity of the compounds against E. coli BW25113 and K. pneumoniae ATCC 10031.
(§3) Stock compounds in DMSO were serially two-fold diluted (range from 50 to 0.097 μM final concentration) in 384 wells microtiter plates and inoculated with 49 μL the bacterial suspension in Iso-Sensitest broth medium to have a final cell concentration of ˜5×10^5 CFU/mL in a final volume/well of 50 μL/well. Microtiter plates were incubated at 35±2° C.
(§4) Bacterial cell growth was determined with the measurement of optical density at k=600 nm each 20 minutes over a time course of 16 h.
(§5) Growth inhibition was calculated during the logarithmic growth of the bacterial cells with determination of the concentration inhibiting 50% (IC50) of the growth.

[4] = test system: E. coli (BW25113); experiment: 50% growth inhibitory concentration (IC50) determination assay, E. coli; assay type: cell-based; details: Escherichia coli, growth inhibition, Iso-Sensitest broth, OD 600 nm over 16 h, 35±2° C., read-out: IC50 (μM) E. coli K12 BW25113
Experimental: as §1, §2, §3, §4, §5

[5] = Cytotoxicity assay (HepG2, CellTiter-Blue); assay type: cell-based; details: human, HepG2 cells, 3 days treatment
Experimental: The cytotoxicity of compounds of present invention was assessed by HepG2 assay. HepG2 cells (ATCC HB-8065™) were seeded into 96-well plates (1.2×10^4 cells per well) and treated with compounds for 3 days, cell viability was measured at day 3 post compound treatment using the CellTiter-Blue® Cell Viability Assay (Promega, Cat. No. G8082). 20 μL of Cell titer blue buffer were added to each well of the cells, incubated for 3 hours at 37° C., and the fluorescence value was measured by a plate reader (Molecular Device SpectraMax M2). The CC50 value of each compound is plotted with GraphPad Prism using four parameter logistic equation.

Row | Structure (SMILES) | MIC [1] | solubility thermodynamic [2] | IC50 [3] | IC50 [4] | CC50 at 3 days [5]
1 | CNc1cc(F)c(F)c2c1[nH]c1ncc(-c3cc(OC)c4ncc(C(=O)O)c(=O)n4c3)c(N(C)C)c12 [Example 1.03, 7-[4-(Dimethylamino)-5,6-difluoro-8-(methylamino)-9H-pyrido[2,3-b]indol-3-yl]-9-methoxy-4-oxo-pyrido[1,2-a]pyrimidine-3-carboxylic acid] | 0.682 µg/mL (≈ 1.38 µM) | 54 µg/mL (≈ 109 µM) | 0.114 µM | 2.71 µM | > 100 µM
2 | CNc1c(F)c(F)cc2c1[nH]c1ncc(-c3ccc4ncc(C(=O)O)c(=O)n4c3)c(N3CCOCC3)c12 [Example 1.13, 7-(6,7-Difluoro-8-(methylamino)-4-morpholino-9H-pyrido[2,3-b]indol-3-yl)-4-oxo-4H-pyrido[1,2-a]pyrimidine-3-carboxylic acid] | 0.0909 µg/mL (≈ 0.179 µM) | 162 µg/mL (≈ 320 µM) | ≤ 0.098 µM | 2.86 µM | 80.1 µM
3 | CNc1cc(F)c(F)c2c1[nH]c1ncc(-c3cc(CN(C)C)c4ncc(C(=O)O)c(=O)n4c3)c(N3CCOCC3)c12 [Example 1.14, 7-(5,6-Difluoro-8-(methylamino)-4-morpholino-9H-pyrido[2,3-b]indol-3-yl)-9-((dimethylamino)methyl)-4-oxo-4H-pyrido[1,2-a]pyrimidine-3-carboxylic acid] |  | 315 µg/mL (≈ 559 µM) | 0.197 µM | 8.58 µM | > 100 µM
4 | CNc1cc(F)c(F)c2c1[nH]c1ncc(-c3ccc4ncc(C(=O)O)c(=O)n4c3)c(N3CCOCC3)c12 [Example 1.10, 7-(5,6-Difluoro-8-(methylamino)-4-morpholino-9H-pyrido[2,3-b]indol-3-yl)-4-oxo-4H-pyrido[1,2-a]pyrimidine-3-carboxylic acid] | 0.017 µg/mL (≈ 0.0336 µM) | 63 µg/mL (≈ 124 µM) | ≤ 0.098 µM | 3.58 µM | > 100 µM

Stronger by IC50 [4], values ahead:

Row | MIC [1] | solubility thermodynamic [2] | IC50 [3] | IC50 [4] | Structure (SMILES) | CC50 at 3 days [5]
5 | 0.127 µg/mL (≈ 0.293 µM) | < 1 µg/mL | ≤ 0.098 µM | 0.17 µM | CNc1cc(F)cc2c1[nH]c1nc(Oc3cnc(C)nc3)nc(N3C[C@H]4C[C@@H]3C[C@H]4C)c12 [GP-6, reference compound] | 5.6 µM
6 |  | 22 µg/mL (≈ 43.3 µM) | 0.105 µM | 2.23 µM | CNc1cc(F)c(F)c2c1[nH]c1ncc(-c3ccc4ncc(C(=O)O)c(=O)n4c3)c(N(C)CCOC)c12 [Example 1.24, 7-(5,6-Difluoro-4-((2-methoxyethyl)(methyl)amino)-8-(methylamino)-9H-pyrido[2,3-b]indol-3-yl)-4-oxo-4H-pyrido[1,2-a]pyrimidine-3-carboxylic acid] | 71 µM
7 | 0.576 µg/mL (≈ 1.25 µM) |  | 0.221 µM | 2.06 µM | CNc1cc(F)cc2c1[nH]c1ncc(-c3cc(C)c4ncc(C(=O)O)c(=O)n4c3)c(N(C)C)c12 [Example 1.05, 7-[4-(Dimethylamino)-6-fliioro-8-(methylamino)-9H-pyrido[2,3-b]indol-3-yl]-9-methyl-4-oxo-pyrido[1,2-a]pyrimidine-3-carboxylic acid] | 34 µM
8 | 0.0212 µg/mL (≈ 0.0456 µM) |  | ≤ 0.098 µM | 0.442 µM | CNc1c(F)c(F)cc2c1[nH]c1ncc(-c3ccc4ncc(C(=O)O)c(=O)n4c3)c(N(C)C)c12 [Example 1.12, 7-(4-(Dimethylamino)-6,7-difluoro-8-(methylamino)-9H-pyrido[2,3-b]indol-3-yl)-4-oxo-4H-pyrido[1,2-a]pyrimidine-3-carboxylic] | 29.9 µM
9 | 0.808 µg/mL (≈ 1.52 µM) |  | 0.284 µM | 2.57 µM | CNc1cc(F)c(F)c2c1[nH]c1ncc(-c3ccc4ncc(C(=O)O)c(=O)n4c3)c(N(C)CC(F)(F)F)c12 [Example 1.09, 7-(5,6-Difluoro-4-(methyl(2,2,2-trifluoroethyl)amino)-8-(methylamino)-9H-pyrido[2,3-b]indol-3-yl)-4-oxo-4H-pyrido[1,2-a]pyrimidine-3-carboxylic acid] | 33.5 µM
10 | 0.0183 µg/mL (≈ 0.0394 µM) | 30 µg/mL (≈ 64.6 µM) |  | 0.906 µM | CNc1cc(F)c(F)c2c1[nH]c1ncc(-c3ccc4ncc(C(=O)O)c(=O)n4c3)c(N(C)C)c12 [Example 1.01, 7-[4-(Dimethylamino)-5,6-difluoro-8-(methylamino)-9H-pyrido[2,3-b]indol-3-yl]-4-oxo-pyrido[1,2-a]pyrimidine-3-carboxylic Acid] | 45.9 µM
